From patent US4873236A, “Condensed diazepinones, processes for preparing them and pharmaceutical compositions containing these compounds” (Dr. Karl Thomae GmbH, priority 1986, dated 1989) come the findings set out here.

For assay [1], the system named is salivation. Put plainly: Salivation-inhibiting effect on the rat (pilocarpine). The assay is classed as in vivo, male THOM rats. The note with it: for ED50: Rattus norvegicus, iv, pilocarpine 2 mg/kg s.c., 50% reduction of saliva volume, read-out: Salivation inhibition (rat) ED50. On the procedure: The secretion of saliva was triggered by subcutaneous administration of 2 mg/kg of pilocarpine. The saliva was soaked up with blotting paper and the area occupied by the saliva was determined by planimetry every 5 minutes. The dosage of substance which reduced the volume of saliva by 50% was determined graphically.

Assay [2] concerns the target T1, muscarinic receptors, heart atrium (Rattus norvegicus, UniProt P10980).
T1 construct: from tissue; host or cells: heart (atrium, ventricle) of female rats, labelled in vivo
T1 sequence (P10980 1-466): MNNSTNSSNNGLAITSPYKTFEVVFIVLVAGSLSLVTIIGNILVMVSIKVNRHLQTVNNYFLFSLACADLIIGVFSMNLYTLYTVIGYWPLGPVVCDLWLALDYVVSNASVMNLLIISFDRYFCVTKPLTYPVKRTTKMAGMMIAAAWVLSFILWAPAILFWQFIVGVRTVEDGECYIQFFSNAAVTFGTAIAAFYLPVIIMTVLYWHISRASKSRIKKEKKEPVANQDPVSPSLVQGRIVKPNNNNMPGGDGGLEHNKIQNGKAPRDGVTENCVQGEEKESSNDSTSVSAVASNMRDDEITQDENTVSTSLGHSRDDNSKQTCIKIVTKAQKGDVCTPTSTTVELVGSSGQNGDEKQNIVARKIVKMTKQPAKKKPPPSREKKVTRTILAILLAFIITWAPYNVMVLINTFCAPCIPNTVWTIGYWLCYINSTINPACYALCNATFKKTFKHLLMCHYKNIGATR
Put plainly: Receptor bonding test in vivo, heart atrium (3H-NMS). The arrangement: species or system female rats. As to conditions: for potency in the heart (in words): Table V, atrium/ventricle, vs comparison substances; for ED50: iv, 0.5 h, i.v., 113 ng/kg 3H-NMS, read-out: ID50 Heart Atrium. On the procedure: (§1) For these experiments, female rats with a body weight of about 200 g were used. Before the start of the test the animals were anaesthetised with a dosage of 1.25 g/kg of urethane. The animals were each given the prescribed dosage of test substance by intravenous injection. After 15 minutes, 113 ng/kg of ^3 H-N-methylscopolamine (^3 H-NMS) were administered by the same route. After another 15 minutes the animals were killed and the heart, bronchi and lachrymal glands were removed. These organs were dissolved in Soluene R and the radioactivity was determined. The measurements were assumed to be total bonding. […] ID50 values were determined for the individual organs using these tests.

Assay [3] concerns the target T2, muscarinic receptors, heart (Rattus norvegicus, UniProt P10980).
T2 construct: After removal of the heart and submandibular gland; from tissue; host or cells: whole heart of male Sprague-Dawley rats, homogenate
T2 sequence (P10980 1-466): T1 sequence (P10980 1-466)
Put plainly: Receptor bonding test in vitro, heart (displacement of 3H-N-methylscopolamine). The assay is classed as binding, Sprague-Dawley rats. As to conditions: for IC50: 0.3 nmolar 3H-NMS, 30° C., 45 min, heart.

Assay [4] has as its target T3, muscarinic receptors of the atrium (Cavia porcellus, UniProt H0VRN8).
T3 construct: In the isolated, spontaneously beating right atrium; from tissue; host or cells: isolated right atrium of guinea pig
T3 sequence (H0VRN8 1-466): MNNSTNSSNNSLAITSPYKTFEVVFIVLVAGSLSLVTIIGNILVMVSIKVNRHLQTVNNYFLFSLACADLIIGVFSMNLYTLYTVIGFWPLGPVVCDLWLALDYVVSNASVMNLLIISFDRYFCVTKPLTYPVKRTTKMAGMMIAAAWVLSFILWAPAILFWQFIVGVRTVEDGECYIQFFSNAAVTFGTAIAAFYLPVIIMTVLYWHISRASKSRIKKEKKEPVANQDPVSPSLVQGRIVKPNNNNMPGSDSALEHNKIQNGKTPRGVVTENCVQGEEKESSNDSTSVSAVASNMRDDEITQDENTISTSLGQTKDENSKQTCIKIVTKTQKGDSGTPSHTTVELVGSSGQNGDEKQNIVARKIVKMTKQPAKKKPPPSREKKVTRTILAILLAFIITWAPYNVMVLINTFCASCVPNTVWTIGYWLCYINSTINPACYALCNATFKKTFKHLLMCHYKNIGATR
Put plainly: Dissociation constants (KB) on spontaneously beating right atrium, methacholine antagonism. More on the design: species or system guinea pig. As to conditions: guinea pig spontaneously beating atrium, methacholine, 30 min contact; read-out: KB Heart (dissociation constant). On the procedure:
(§2) Dissociation constants (KB values) were determined in vitro on the guinea pig ileum and spontaneously beating atrium. The ileum was removed and incubated in Krebs-Henseleit solution in an organ bath. Contractions were produced by means of increasing concentrations of methacholine (M) so that a full concentration-activity curve could be plotted. Then M was washed out, the test substance was added and kept in contact for 30 minutes and again a concentration-activity curve was plotted with M. The dissociation constant was calculated according to Arunlakshana and Schild (Brit. J. Pharmacol. 14, 48, 1959) from the dosage ratio (DR), i.e. the extent of displacement of the concentration-activity curve.
(§3) In the isolated, spontaneously beating right atrium M reduced the heart rate as a function of the concentration. This effect was stopped by the addition of an antimuscarinic. Dissociation constants for the muscarinic receptors of the atrium were obtained in the same way as described above. A comparison of the dissociation constants measured in the two different tissues made it possible to identify cardioselective substances.

The subject of assay [5] is muscarinic receptors of the atrium. Described as above. The arrangement: species or system guinea pig. As to conditions: Table IV. As for the experimental part:
as §2, §3

Assay [6] addresses T4, M2 (vagal bradycardia) (Rattus norvegicus, UniProt P10980).
T4 construct: The bradycardia produced by vagus stimulation; from tissue; host or cells: whole animal (male THOM rats), heart
T4 sequence (P10980 1-466): T1 sequence (P10980 1-466)
Put plainly: M1/M2 selectivity in the rat: inhibition of vagally stimulated bradycardia (M2). The assay is classed as in vivo, male THOM rats. The note with it: iv, 5 min, i.v., 50% reduction in vagal bradycardia, read-out: M2 activity (rat) ED50. On the procedure: The method used was described by Hammer and Giachetti (Life Sciences 31, 2991-2998 (1982)). 5 minutes after intravenous injection of increasing doses of the substance, either the right vagus was electrically stimulated (frequency: 25 Hz; pulse width: 2 ms; duration of stimulus: 30 s; number of volts: supramaximal) or 0.3 mg/kg of McN-A-343 was injected intravenously into male THOM rats. The bradycardia produced by vagus stimulation and the increase in blood pressure produced by McN-A-343 were measured.

Assay [7] has as its target T5, muscarinic receptors, heart ventricle (Rattus norvegicus, UniProt P10980).
T5 construct: the heart, bronchi and lachrymal glands were removed; from tissue; host or cells: heart (atrium, ventricle) of female rats, labelled in vivo
T5 sequence (P10980 1-466): T1 sequence (P10980 1-466)
Put plainly: Receptor bonding test in vivo, heart ventricle (3H-NMS). The note with it: iv, 0.5 h, in vivo binding, i.v., 113 ng/kg 3H-NMS, read-out: ID50 Heart Ventricle. More on the design: species or system female rats. On the procedure: as §1

The structures appear in SMILES notation.

The term IC50 denotes the midpoint of a concentration-inhibition curve. Read a high IC50 as weaker potency. Usually Kb stands for the equilibrium dissociation constant of an antagonist, usually derived from a functional assay. Consider `CCN(CC)CC1CCCCN1CCNC(=O)N1c2ccccc2NC(=O)c2csc(C)c21` (stereo not drawn) [Substance B, 4-[[[2-[2-[(diethylamino)methyl]-piperidin-1-yl]ethyl]amino]carbonyl]-4,9-dihydro-3-methyl-10H-thieno[3,4-b][1,5]benzodiazepin-10-one], for which the ED50 is 0.078 mg/kg in assay [1]; 0.025 mg/kg in assay [2] (in vivo binding, rat); 0.008 mg/kg in assay [6]; 0.006 mg/kg in assay [7]. In addition, the “Ratio of salivation inhibition to M2 activity” value in assay [1] (rat, i.v. ED50 values) is 9.75. Besides, the “potency in the heart (in words)” value in assay [2] is “decisive improvement in potency compared with substances Y and Y in the heart”. Further, the “Ratio of ID50 lachrymal gland to ID50 atrium” value in assay [2] (in vivo binding, rat, 30 min) is recorded as greater than 40. Also, in assay [3], the “Selectivity factor: Ratio IC50 submandibular gland to IC50 heart” value was found to be 5. Further, the IC50 in assay [3] amounted to 3 nM. Moreover, the Kb in assay [4] turned out to be 0.24 nM. The “efficacy compared with X and Y (in words)” value in assay [5] was “significantly more effective than X and Y”.

As for `CCN(CC)CC1CCCCN1CCNC(=O)N1c2cc(Cl)ccc2C(=O)Nc2cccnc21` (stereo not drawn) [Substance C, 9-chloro-11-[[[2-[2-[(diethylamino)methyl]-piperidin-1-yl]ethyl]amino]carbonyl]-5,11-dihydro-6H-pyrido[2,3-b][1,4]benzodiazepin-6-one], the ED50 in assay [1] amounted to 1.4 mg/kg; in assay [2] (in vivo binding, rat), 0.2 mg/kg; in assay [6], 0.058 mg/kg; in assay [7], 0.09 mg/kg. In addition, the “potency in the heart (in words)” value in assay [2] was “decisive improvement in potency compared with substances Y and Y in the heart”. The IC50 in assay [3] was 30 nM. The antagonist equilibrium constant (Kb) in assay [4] was 4.9 nM. Further, the “efficacy compared with X and Y (in words)” value in assay [5] was “significantly more effective than X and Y”.

For the compound `CCCN(CCC)CC1CCCCN1CCNC(=O)N1c2ccccc2C(=O)Nc2cccnc21` (stereo not drawn) [Substance A, 5,11-dihydro-11-[[[2-[2-[(dipropylamino)methyl]-piperidin-1-yl]ethyl]amino]carbonyl]-6H-pyrido[2,3-b][1,4]benzodiazepin-6-one], the ED50 in assay [1] amounted to 0.458 mg/kg; in assay [2] (in vivo binding, rat) it was 0.2 mg/kg; in assay [6], 0.019 mg/kg; in assay [7] it was 0.15 mg/kg. The “potency in the heart (in words)” value in assay [2] was “decisive improvement in potency compared with substances Y and Y in the heart”. Also, the IC50 in assay [3] was 20 nM. Further, the Kb in assay [4] was determined as 2.45 nM. Moreover, in assay [5], the “efficacy compared with X and Y (in words)” value was “significantly more effective than X and Y”.
